Test results reported in PMC5504357, “Antifungal Potential of Copper(II), Manganese(II) and Silver(I) 1,10-Phenanthroline Chelates Against Multidrug-Resistant Fungal Species Forming the Candida haemulonii Complex: Impact on the Planktonic and Biofilm Lifestyles” (Frontiers in Microbiology, 2017).

Experiments:
Candida duobushaemulonii [1] = assay: Planktonic growth, broth microdilution (CLSI M27-A3), MIC; type: cell-based; conditions: for GM-MIC: geometric mean of three C. duobushaemulonii isolates; for MIC: planktonic, 48 h, 37°C
Outline: (§1)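 Following CLSI M27-A3, compounds were serially diluted in RPMI 1640 (0.0625-32 mg/L) and incubated with isolates at 37°C for 48 h. Visual reading gave the MIC as the lowest growth-free concentration, and MICs were pooled as a geometric mean over isolates; inocula came from 48 h Sabouraud-dextrose cultures.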

[2] = system: Candida haemulonii var. vulnera; assay: as above; type: cell-based; conditions: for GM-MIC: geometric mean of three C. haemulonii var. vulnera isolates; for MIC: planktonic, 48 h, 37°C
Outline: as §1

Candida haemulonii [3] = assay: as above; type: cell-based; conditions: for GM-MIC: geometric mean of three C. haemulonii isolates; for MIC: planktonic, 48 h, 37°C
Outline: as §1

C. haemulonii complex = assay: Planktonic growth, overall across all nine isolates; type: cell-based, Candida haemulonii complex; conditions: geometric mean across all nine strains; for MIC: in μM, read-out: Overall GM-MIC
Outline: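 Isolates were precultured in Sabouraud-dextrose with shaking for 48 h at 37°C. Test agents were then serially diluted in RPMI 1640 (0.0625-32 mg/L) per CLSI M27-A3. Plates were incubated 48 h at 37°C and scored visually for the lowest growth-free concentration, with a geometric mean across isolates.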

A549 cells = assay: Mammalian cell toxicity (MTT assay) and selectivity index; type: cell-based, Human; conditions: MTT, 48 h incubation
Outline: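 A549 cells were exposed to compounds (0.0313–512 μg/mL) in DMEM for 48 h at 37 °C, 5% CO2. Viability was measured by MTT (3 h, dark), with formazan dissolved in DMSO and read at 450 nm. CC50 was derived, and SI calculated as A549 CC50 divided by C. haemulonii complex GM-MIC.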

Candida duobushaemulonii [4] = assay: Biofilm-growing cells, XTT assay, bMIC; type: cell-based; conditions: for GM-bMIC: geometric mean, C. duobushaemulonii isolates; for bMIC: mature biofilm, 48 h, 50% inhibition of metabolic activity
Outline: (§2)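 Activity against established biofilms: 48 h growth at 37°C in Sabouraud-dextrose broth from 10^6 yeast cells, three PBS washes, then 48 h with compounds. The endpoint was XTT-formazan formation, scored as the concentration halving metabolic activity.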

[5] = system: Candida haemulonii var. vulnera; assay: Biofilm-growing cells, XTT assay, bMIC; type: cell-based; conditions: for GM-bMIC: geometric mean, C. haemulonii var. vulnera isolates; for bMIC: mature biofilm, 48 h, 50% inhibition of metabolic activity
Outline: as §2

Candida haemulonii [6] = assay: Biofilm-growing cells, XTT assay, bMIC; type: cell-based; conditions: for GM-bMIC: geometric mean, C. haemulonii isolates, values marked * do not include LIP Ch4 (>512); for bMIC: mature biofilm, 48 h, 50% inhibition of metabolic activity
Outline: as §2

Row | Compound | GM-MIC (Candida duobushaemulonii [1]) [µg/mL] | MIC (Candida duobushaemulonii [1]; isolate LIP Ch1) [µg/mL] | MIC (Candida duobushaemulonii [1]; isolate LIP Ch6) [µg/mL] | MIC (Candida duobushaemulonii [1]; isolate LIP Ch8) [µg/mL] | GM-MIC [2] [µg/mL] | MIC ([2]; isolate LIP Ch5) [µg/mL] | MIC ([2]; isolate LIP Ch9) [µg/mL] | MIC ([2]; isolate LIP Ch11) [µg/mL] | GM-MIC (Candida haemulonii [3]) [µg/mL] | MIC (Candida haemulonii [3]; isolate LIP Ch4) [µg/mL] | MIC (Candida haemulonii [3]; isolate LIP Ch7) [µg/mL] | MIC (Candida haemulonii [3]; isolate LIP Ch12) [µg/mL] | Overall GM-MIC (C. haemulonii complex) [µg/mL] | MIC (C. haemulonii complex) [µM] | A549 (CC50) (A549 cells) [µg/mL] | GM-bMIC (Candida duobushaemulonii [4]) [mg/L] | bMIC (Candida duobushaemulonii [4]; isolate LIP Ch1) [mg/L] | bMIC (Candida duobushaemulonii [4]; isolate LIP Ch6) [mg/L] | bMIC (Candida duobushaemulonii [4]; isolate LIP Ch8) [mg/L] | GM-bMIC [5] [mg/L] | further results
1 | CCO.O=C([O-])COCCOCCOCC(=O)[O-].[Ag+].[Ag+].c1cnc2c(c1)ccc1cccnc12.c1cnc2c(c1)ccc1cccnc12.c1cnc2c(c1)ccc1cccnc12.c1cnc2c(c1)ccc1cccnc12 [compound 16, [Ag2(3,6,9-tdda)(phen)4].EtOH] | 1.26 | 2 | 1 | 1 | 0.79 | 1 | 0.5 | 1 | 1 | 1 | 1 | 1 | 1 | 0.83 | 2.21 | 6.35 | 4 | 8 | 8 | 2.52 | bMIC ([5]; isolate LIP Ch5): 4 mg/L; bMIC ([5]; isolate LIP Ch9): 1 mg/L; bMIC ([5]; isolate LIP Ch13): 4 mg/L; GM-bMIC (Candida haemulonii [6]): 16 mg/L; bMIC (Candida haemulonii [6]; isolate LIP Ch4): 32 mg/L; bMIC (Candida haemulonii [6]; isolate LIP Ch7): 16 mg/L; bMIC (Candida haemulonii [6]; isolate LIP Ch14): 8 mg/L
2 | {[Cu(3,6,9-tdda)(phen)2].3H2O.EtOH}n [compound 7] | 2 | 2 | 2 | 2 | 2.52 | 2 | 2 | 4 | 3.17 | 4 | 4 | 2 | 2.52 | 3.37 | 1.06 | 8 | 16 | 4 | 8 | 3.17 | bMIC ([5]; isolate LIP Ch5): 4 mg/L; bMIC ([5]; isolate LIP Ch9): 4 mg/L; bMIC ([5]; isolate LIP Ch13): 2 mg/L; GM-bMIC (Candida haemulonii [6]): 8 mg/L; bMIC (Candida haemulonii [6]; isolate LIP Ch4): 32 mg/L; bMIC (Candida haemulonii [6]; isolate LIP Ch7): 4 mg/L; bMIC (Candida haemulonii [6]; isolate LIP Ch14): 4 mg/L
